Source: patent publication US9884065B2, “Inhibiting activity of senescent cells using a glucocorticoid” (Buck Institute for Research on Aging, priority 2011, dated 2018)

Columns and labels:
[1] = test system: HCA2 human fibroblasts; conditions: 2.5 μM, 48 hours
Method: The initial drug screen was performed in a 96-well format using automated liquid handling with a Biomek FX (Beckman Coulter, CA). Senescent cells were plated 24 hours after X-irradiation at 7,500 cells per well in 96-well plates. Six days after plating the senescent cells, the pre-senescent cells were plated at 7,500 cells per well in 96-well plates. Twenty-four hours after pre-senescent plating, both pre-senescent and senescent cells were washed and incubated in low (0.2%) serum for 48 hours to arrest cell proliferation of the pre-senescent cells. Drugs from the Prestwick Chemical Library, which contains 1120 bio-available compounds in DMSO, were given to the cells at 2.5 μM in media containing 0.2% serum. Forty-eight hours after compound addition, the medium in each well was removed and frozen for assay by ELISA to quantitate the levels of IL-6. The cells, which remained in the wells after the medium was removed, were lysed and ATP levels were measured (ATPlite 1-step assay, Perkin Elmer, MA) to exclude compounds that lowered IL-6 through toxicity (cell death). Experimental wells in each plate were normalized to plate mean or same-plate DMSO controls for the ELISA and ATP assays, respectively.
To identify small molecules that may be potential SASP modulators, a screening strategy that entailed administering compounds to parallel 96-well plates containing human fibroblasts (strain HCA2) that were either quiescent or senescent was developed. The compounds tested comprised the Prestwick Chemical Library, a collection of approximately 1,120 Federal Drug Administration-approved drugs. The compounds were added to duplicate wells at a single concentration (2.5 μM). After 48 hours, the medium from each well was removed, and the cells were lysed. […] Cell lysates were assayed for ATP as a surrogate for cell number.

[2] = test system: IL-6; assay: IL-6 ELISA of conditioned media from X-irradiated senescent HCA2 fibroblasts; format: cell-based, human; conditions: for IL-6 secretion, varying concentrations: added immediately after irradiation, 6 days
Method: To validate glucocorticoids as SASP regulators, they were added within 15 min after irradiation (unless otherwise indicated). For cells induced to senesce by MKK6 or RAS overexpression, glucocorticoid treatment started 16 hours after infection. Glucocorticoids were re-added in fresh media every other day. Six days after irradiation or selection, cells were given serum-free DMEM with or without glucocorticoid for 24 hours; the conditioned media were collected and frozen for ELISAs.
Conditioned media were filtered and stored at −80° C. Cell numbers were determined in every experiment. ELISAs were performed using kits and procedures from PerkinElmer (IL-6 AL223F). Data were normalized and expressed as pg/ml/cell/24 h.
To confirm the ability of corticosterone to suppress senescence-associated IL-6 secretion, fresh HCA2 fibroblast cultures were prepared, and senescence was induced by X-irradiation (10 Gy). Under these conditions, cells undergo growth arrest within 24-48 hours, but require 4-5 days before SASP components are detected in the medium (Coppe et al., 2008, PLoS Biol. 6:2853-2868; Rodier et al., 2009, Nature Cell Biol. 11:973-979; Coppe et al., 2010, PLoS ONE 5:e9188; Freund et al., 2011, EMBO J. 30:1536-1548). Varying concentrations of corticosterone were added immediately after irradiation, and the cells were maintained in the drug for 6 days. On the 6th day, the cells were incubated in serum-free medium with or without corticosterone, the conditioned medium was collected 24 h later, and the medium was assayed for IL-6 by ELISA. […] The ability of corticosterone to suppress IL-6 secretion by senescent cells was not peculiar to HCA2 cells.

[3] = test system: SASP; assay: Antibody arrays of conditioned media (120 cytokines and growth factors, SASP); format: cell-based, human; conditions: 500 nM corticosterone or 100 nM cortisol
Method: Cultures were washed and incubated in serum-free DMEM for 24 hours and the conditioned media were diluted to equivalent cell numbers using DMEM. Antibody arrays from Raybiotech (AAH-CYT-G1000-8) were used according to the manufacturer's instructions. Arrays were scanned using a GenePix 4200A Professional microarray scanner. Signal intensities were quantitated using LI-COR Odyssey software and normalized to positive controls for each sample, which were then normalized across all samples, as previously described (Freund et al., 2011, EMBO J. 30:1536-1548).
To determine whether or not, or to what extent corticosterone or cortisol suppressed the entire SASP, antibody arrays were used to interrogate the relative secretion of 120 cytokines and growth factors. Presenescent and senescent cells were incubated with 500 nM corticosterone or 100 nM cortisol (FIG. 12C).

[4] = test system: NF-κB; assay: NF-κB DNA binding activity in nuclear extracts (TransAM NF-κB p65 kit); format: cell-based, human; conditions: senescent cells; 500 nM corticosterone or 100 nM cortisol
Method: Nuclear extracts were prepared using the nuclear extract kit (Active Motif), and NF-κB DNA binding was determined using the TransAM NF-κB p65 kit (Active Motif). For transactivation assays, cells infected with the NF-κB reporter-luciferase lentivirus were lysed in buffer (Promega), and luciferase activity was normalized to cell number, as described (Freund et al., 2011, EMBO J. 30:1536-1548).

[5] = test system: IL-1α/IL-1 receptor (IL-1R) signaling; assay: Western blotting of HCA2 lysates for IRAK1, IκBα, RelA; format: cell-based, human; conditions: senescent cells; 500 nM corticosterone or 100 nM cortisol
Method: Cells were lysed in RIPA buffer. Lysates were sonicated (10 sec), followed by centrifugation. Samples were incubated at 70° C. for 10 min, loaded on 4-15% gradient tris-glycine SDS-polyacrylamide gels (Invitrogen) and separated by electrophoresis. Proteins were transferred to PVDF membranes, blocked in TBST 5% milk for 1 hour at room temperature, and probed overnight at 4° C. with primary antibodies in blocking buffer. Membranes were washed in TBST, and incubated with horseradish peroxidase-conjugated secondary antibodies for 1 hour at room temperature. Blots were developed using Western detection substrate (GE Healthcare).
Primary antibodies and dilutions were: anti-GR (SC-8992, Santa Cruz; 1:500), anti-actin (ab6276, Abcam; 1:50000), anti-MCR (SC-11412, Santa Cruz; 1:500), anti-IRAK1 (SC-5288, Santa Cruz; 1:500), anti-IκBα (#9247, Cell Signaling; 1:500), anti-RelA (SC-109, Santa Cruz; 1:500), and anti-53BP1 (A300-272A, Bethyl; 1:500).

[6] = test system: T47D human breast cancer cells; assay: Invasion assay: conditioned media from HCA2 fibroblasts stimulating T47D invasion of basement membrane; format: cell-based; conditions: HCA2 fibroblasts treated with corticosterone or cortisol for 10 d
Method: T47D human breast cancer cells (120,000 cells/well) were plated atop a layer of Matrigel in the upper chambers of Transwells (BD Biosciences). The lower chambers contained conditioned media from pre-senescent or senescent HCA2 fibroblasts treated with corticosterone or cortisol for 10 d. After 18 h, cells that migrated to the underside of the upper chamber filter were stained and counted, as described (Coppe et al., 2008, PLoS Biol. 6:2853-2868; Coppe et al., 2010, PLoS ONE 5:e9188).

SMILES | ATP levels [1] | reduction of senescence-associated IL-6 secretion ([2]; 100 nM cortisol) [%] | IC50 ([2]; Homo sapiens, HCA2, sub-nM concentrations, read-out: concentration reducing senescence-associated IL-6 secretion by 50%) [nM] | IL-6 secretion, varying concentrations [2] | secretion of growth and angiogenic factors [3] | secretion of pro-inflammatory cytokines and chemokines [3] | suppression of all components of the SASP [3] | NF-κB DNA binding [4] | IRAK1 and IκBα protein abundance [5] | ability of senescent conditioned media to stimulate T47D invasiveness [6] | reduction of IL-6 secretion ([2]; 20 nM corticosterone) | maximal suppression of IL-6 secretion ([2]; 500 nM corticosterone) [%] | IL-6 secretion, continuous exposure ([2]; 500 nM, continuous exposure for 7 days after irradiation) | IL-6 secretion, short exposure ([2]; 500 nM, pretreatment before X-irradiation, or only 24 hours immediately after irradiation or after establishment of the SASP (7 days))
C[C@]12CCC(=O)C=C1CC[C@@H]1[C@@H]2[C@@H](O)C[C@@]2(C)[C@H]1CC[C@]2(O)C(=O)CO [cortisol] | without altering ATP levels | > 90 | 0.16 to 0.8 | decreased IL-6 secretion in a dose-dependent manner, and was more potent than corticosterone | suppressed the secretion of several growth and angiogenic factors such as VEGF | strongly suppressed the secretion of several pro-inflammatory cytokines and chemokines, including IL-6, IL-8, GM-CSF and MCP-2 | Neither glucocorticoid suppressed all components of the SASP | significantly decreased | restored IRAK1 and IκBα proteins to near-presenescent levels | near-presenescent levels |  |  |  | 
C[C@]12C[C@H](O)[C@H]3[C@@H](CCC4=CC(=O)CC[C@@]43C)[C@@H]1CC[C@@H]2C(=O)CO [corticosterone] | without altering ATP levels |  |  | decreased IL-6 secretion in a dose-dependent manner | suppressed the secretion of several growth and angiogenic factors such as VEGF | strongly suppressed the secretion of several pro-inflammatory cytokines and chemokines, including IL-6, IL-8, GM-CSF and MCP-2 | Neither glucocorticoid suppressed all components of the SASP | significantly decreased | restored IRAK1 and IκBα proteins to near-presenescent levels | near-presenescent levels | approximately 50% | > 90 | strongly suppressed IL-6 secretion | had no effect on IL-6 secretion
